This data set is described as follows: Drug solubility versus pH. As to conditions: pH above 7.4. The format is physicochemical. From the text: Media provides sink conditions for maximum release of the drug from pharmaceutical system as well as aids in solubilization of drug for release; therefore, proper selection of media can be important. Media of different pH was used for selection of the correct media for dissolution of the naltrexone implantable tablets. The following five dissolution media were used from pH ranging from 1.2 to 7.4. The pH above 7.4 was not used, as the drug solubility is reduced at pH above 7.4.

As to `O=C1CC[C@@]2(O)[C@H]3Cc4ccc(O)c5c4[C@@]2(CCN3CC2CC2)[C@H]1O5` [Naltrexone, 17-(cyclopropylmethyl)-4,5α-epoxy-3,14-dihydroxymorphinan-6-one], the drug solubility result was “reduced”.

For the origin of these results see patent US10507184B2, “Implantable Naltrexone tablets” (RUSAN PHARMA LIMITED, priority 2015, dated 2019).
